{"source": "patent US20090275551A1", "about": "“Fluvastatin for the treatment of patients with a history of muscle related side effects with other statins” (priority 2007, published 2009)", "key": {"LDL-C": {"test_system": "LDL-C", "experiment": "Randomized, double-blind 12-week study: lipid-lowering efficacy in patients with prior statin MRSEs", "format": "in vivo, human (patients)", "protocol": "(§1) A randomized, double-blind, double-dummy, parallel-group, multicenter study evaluating the efficacy and tolerability of fluvastatin XL 80 mg/day, and ezetimibe 10 mg/day, alone or in combination, is conducted according to the ethical principles of the Guidelines for Good Clinical Practice and the Declaration of Helsinki of the World Medical Association. Patients are recruited in 27 centers in Germany, Greece, Norway, Russia, Turkey and the United States. The protocol is approved by local ethics committees or institutional review boards. Written, informed consent before randomization are provided by all patients.\nAfter a minimum 5-week lead-in, drug wash-out and diet stabilization period, patients who fulfilled the study criteria are randomized in a 1:1:1 ratio to 12-week treatment with fluvastatin XL 80 mg plus matched placebo for ezetimibe 10 mg, or ezetimibe 10 mg plus matched placebo for fluvastatin XL 80 mg, or fluvastatin XL 80 mg plus ezetimibe 10 mg. […] Compliance is assessed by study personnel using pill counts at each visit. […]\nInitial screening includes medical history, physical examination, clinical chemistry, hematology and urinalysis. […] AI and Apo-B are measured at weeks 0, 4, 8 and 12. High sensitivity C-reactive protein (hs-CRP) is measured at weeks 0 and 12. […] LDL-C is calculated using the Friedewald formula when triglyceride levels <400 mg/dL. […]"}, "[1]": {"experiment": "Randomized, double-blind 12-week study: safety, tolerability and recurrence of muscle-related side effects (MRSE)", "format": "in vivo, human (patients)", "protocol": "as §1\nAfter a minimum 5-week lead-in, drug wash-out and diet stabilization period, patients who fulfilled the study criteria are randomized in a 1:1:1 ratio to 12-week treatment with fluvastatin XL 80 mg plus matched placebo for ezetimibe 10 mg, or ezetimibe 10 mg plus matched placebo for fluvastatin XL 80 mg, or fluvastatin XL 80 mg plus ezetimibe 10 mg. For blinding purposes tablets for fluvastatin XL/placebo and capsules for ezetimibe/placebo are used. Treatment assignment is unbiased and concealed from patients and investigator staff, by a randomization list produced by the sponsor using a validated system that automates the random assignment of treatment groups. Treatment remains fully blinded from the time of randomization until database lock. Trial medication is taken with water at bedtime. Compliance is assessed by study personnel using pill counts at each visit. Patients are to continue a low saturated fat and cholesterol-restricted diet and exercise regimen.\nThe study enrolls men and women 18 years of age or older with dyslipidemia who have previously experienced documented MRSEs that have led to cessation of statin treatment, or patients currently receiving statin treatment (other than fluvastatin) whose quality of life is affected by MRSEs and require switching to an alternative treatment. MRSEs include myalgia (defined as muscle ache, pain or discomfort), muscle cramps, lack of strength during effort, heaviness and/or weakness without creatine kinase elevation >3 times upper limit of normal.\nSafety evaluations include regular monitoring of all adverse events, urine, hematology, blood chemistry, as well as physical examination and assessment of vital signs. MRSEs are assessed before and during the study using a standard questionnaire as detailed in Table 1.\nObjectives of this study are to assess LDL-C reduction from baseline of (1) fluvastatin XL 80 mg in combination with ezetimibe 10 mg compared with ezetimibe 10 mg monotherapy and (2) fluvastatin XL 80 mg compared with ezetimibe 10 mg. Objectives of the study are also include (1) to assess the tolerability of fluvastatin XL 80 mg and ezetimibe 10 mg alone or in combination as determined by the rate of recurrence of MRSEs and the rate of recurrence of MRSEs leading to study drug discontinuation; (2) to assess the effect of fluvastatin XL 80 mg alone or in combination with ezetimibe 10 mg on total cholesterol, triglycerides, HDL-C, LDL-C:HDL-C ratio, Apo-AI and Apo-B compared with ezetimibe 10 mg monotherapy; (3) to determine the number of patients in each treatment group who reached target LDL-C levels according to the current National Cholesterol Education Program guidelines, (4) to assess the effect of fluvastatin XL 80 mg and ezetimibe 10 mg alone or in combination on hs-CRP; and (5) to assess the overall safety and tolerability profile of fluvastatin XL 80 mg and ezetimibe 10 mg alone or in combination.\nWith a sample size of 70 patients per treatment group, the study has 90% power to detect a difference of 9.65% between the population means, using a two-sided comparison with α equal to 0.05 and assuming a standard deviation of 17.5% in both groups. Efficacy and tolerability analyses are performed using the intent-to-treat population, defined as all patients receiving at least 1 dose of study drug. […]"}}, "data": [{"smiles": "O=C1[C@H](CC[C@H](O)c2ccc(F)cc2)[C@@H](c2ccc(O)cc2)N1c1ccc(F)cc1", "note": "[Ezetimibe]", "values": [{"measurement": "LDL-C lowering from baseline", "setting": "LDL-C; baseline to week 12 or study end (LOCF), fluvastatin XL 80 mg/day, ezetimibe 10 mg/day", "value": 15.6, "unit": "%"}, {"measurement": "patients achieving a LDL-C level of <100 mg/dL at study end", "setting": "LDL-C; subgroup of 91 patients in the high-risk category", "value": 4, "unit": "%"}, {"measurement": "MRSE recurrence leading to discontinuation, incidence rate", "setting": "[1]; 12-week treatment", "value": 8, "unit": "%"}, {"measurement": "MRSE recurrence leading to discontinuation, number of patients", "setting": "[1]; 12-week treatment", "value": 5, "unit": "patients"}, {"measurement": "any MRSE recurrence, incidence rate", "setting": "[1]; 12-week treatment", "value": 24, "unit": "%"}, {"measurement": "any MRSE recurrence, number of patients", "setting": "[1]; 12-week treatment", "value": 16, "unit": "patients"}, {"measurement": "patients prematurely discontinued from the study due to adverse events", "setting": "[1]; 12-week treatment", "value": 8, "unit": "patients"}, {"measurement": "patients reporting an adverse event", "setting": "[1]; 12-week treatment, safety population", "value": 39, "unit": "patients"}, {"measurement": "median time to first event, MRSE recurrence leading to discontinuation", "setting": "[1]; in vivo", "value": 2.57, "unit": "weeks"}, {"measurement": "median time to first event, any MRSE recurrence", "setting": "[1]; in vivo", "value": 3.07, "unit": "weeks"}]}]}
